pIC50, pKi: −log10 of the molar value.
What was measured:
H146 cells = assay: H146 cell viability, MTT assay; format: cell-based; conditions: Homo sapiens, NCI-H146, 48 h, 48 h exposure
Outline: (§1)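 Cells grown in RPMI 1640 with 10% heat-inactivated FBS at 37° C, 5% CO2, exposed 48 h to nine 3.16-fold serial compound dilutions in triplicate. MTT added for 4 h, SDS/HCl solubilisation overnight, absorbance at 540 nm; IC50 by four-parameter fit.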

BCLXL [1] = target: T1, BCLXL (Homo sapiens, UniProt Q07817, V10N/V9A); assay: Fluorescence polarisation assay (PUMA-based probe displacement); format: binding; also: 20 nM protein, 10 nM fluorescent probe
MOLT-4 cells = assay: MOLT-4 cell viability, MTT assay; format: cell-based; conditions: Homo sapiens, MOLT-4, 48 h, 48 h exposure
Outline: as §1

BCLXL [2] = target: T1, BCLXL; assay: AlphaLISA assay (BIM peptide displacement); format: binding; conditions: 20 pM protein, 1 nM peptide
Outline: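 Competitive displacement of fluorescein-labelled BIM peptide (1 nM) from biotinylated GST-BCL-XL(2-209) (20 pM) in 10 mM HEPES, 150 mM NaCl, 0.05% Tween 20, pH 7.4, 4% DMSO; 11-point dilutions. Overnight at 23° C with acceptor beads, then donor beads 2 h; Alpha signal at 615 nm.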

Bcl-xL protein = target: T2, Bcl-xL protein (Homo sapiens, UniProt Q07817, N197C); assay: Fluorescence quenching assay (PUMA peptide displacement); format: binding; conditions: 1 nM protein, 400 nM peptide, 2 hours at 23° C.; KI determined from IC50
T2 construct: (2-197)[N197C]; His-His (two His8 stretches joined by a Gly/Ala/Ser/Thr linker)
Outline: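 Displacement of a TQ5WS-quencher-labelled PUMA peptide (400 nM) from Cy5-labelled His-tagged Bcl-xL 2-197 N197C (1 nM) raises fluorescence. An 11-point compound dilution was incubated 2 h at 23 °C in HEPES 10 mM, NaCl 150 mM, 0.05% Tween 20, pH 7.4, 5% DMSO. Fluorescence was read at Ex 620/Em 680 nm, and KI was derived from IC50.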

T2 sequence (Q07817 2-197 N197C): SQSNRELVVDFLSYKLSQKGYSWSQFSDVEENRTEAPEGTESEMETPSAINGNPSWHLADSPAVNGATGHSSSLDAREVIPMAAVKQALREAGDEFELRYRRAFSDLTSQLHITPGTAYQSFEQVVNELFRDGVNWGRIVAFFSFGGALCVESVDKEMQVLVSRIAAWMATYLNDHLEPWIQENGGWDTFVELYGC
T1 sequence (Q07817 with tags, fused parts or gaps V9A/V10N): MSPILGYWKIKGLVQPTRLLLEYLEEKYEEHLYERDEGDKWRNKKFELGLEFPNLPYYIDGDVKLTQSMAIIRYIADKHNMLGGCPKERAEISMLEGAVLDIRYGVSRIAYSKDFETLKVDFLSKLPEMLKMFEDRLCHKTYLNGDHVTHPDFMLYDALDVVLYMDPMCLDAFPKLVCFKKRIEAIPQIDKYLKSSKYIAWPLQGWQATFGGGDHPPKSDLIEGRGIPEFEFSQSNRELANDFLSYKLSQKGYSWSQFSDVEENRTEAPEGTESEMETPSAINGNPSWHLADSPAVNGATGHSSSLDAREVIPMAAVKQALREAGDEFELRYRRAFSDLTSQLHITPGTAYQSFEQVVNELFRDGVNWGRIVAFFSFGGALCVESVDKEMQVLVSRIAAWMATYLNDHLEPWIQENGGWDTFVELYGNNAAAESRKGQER

Structure (SMILES) | pIC50 (H146 cells) | pKi (BCLXL [1]) | pIC50 (MOLT-4 cells) | pIC50 (BCLXL [2]) | pKi (Bcl-xL protein)
CNCC#Cc1ccc(OCCCc2sc(N(CC(CO)OC)c3cc(C)c(Nc4nc5ccccc5s4)nn3)nc2C(=O)O)c(F)c1 (centres unmarked) [Example 118, 2-[[6-(1,3-Benzothiazol-2-ylamino)-5-methyl-pyridazin-3-yl]-(3-hydroxy-2-methoxy-propyl)amino]-5-[3-[2-fluoro-4-[3-(methylamino)prop-1-ynyl]phenoxy]propyl]thiazole-4-carboxylic acid] | 7.49 |  | 7.02 | 10.74 | 10.48
Cc1cc(N(C)c2nc(C(=O)O)c(CC3(COc4ccc(C#CCN(C)C)cc4F)CC3)s2)nnc1Nc1nc2ccccc2s1 [Example 140, 2-({6-[(1,3-Benzothiazol-2-yl)amino]-5-methylpyridazin-3-yl}(methyl)amino)-5-{[1-({4-[3-(dimethylamino)prop-1-yn-1-yl]-2-fluorophenoxy}methyl)cyclopropyl]methyl}-1,3-thiazole-4-carboxylic acid] | 6.85 | > 9.00 | 7.63 | 10.62 | 
Cc1cc(N(CCCCO)c2nc(C(=O)O)c(CCCOc3ccc(C#CCN(CCCS(=O)(=O)O)CCCS(=O)(=O)O)cc3F)s2)nnc1Nc1nc2ccccc2s1 [Example 147, 2-({6-[(1,3-Benzothiazol-2-yl)amino]-5-methylpyridazin-3-yl}(4-hydroxybutyl)amino)-5-[3-(4-{3-[bis(3-sulfopropyl)amino]prop-1-yn-1-yl}-2-fluorophenoxy)propyl]-1,3-thiazole-4-carboxylic acid] |  |  |  | 11.15 | 11.01
Cc1cc(N(CCCCO)c2nc(C(=O)O)c(CCCOc3ccc(C#CCNCCCS(=O)(=O)O)cc3F)s2)nnc1Nc1nc2ccccc2s1 [Example 148, 2-[[6-(1,3-Benzothiazol-2-ylamino)-5-methyl-pyridazin-3-yl]-(4-hydroxybutyl)amino]-5-[3-[2-fluoro-4-[3-(3-sulfopropylamino)prop-1-ynyl]phenoxy]propyl]thiazole-4-carboxylic acid] |  |  |  | 11.24 | 11.92
Cc1cc(N(C)c2nc(C(=O)O)c(C[C@H](C)COc3ccc(C#CCN(C)C)cc3F)s2)nnc1Nc1nc2ccccc2s1 [Example 161, 2-({6-[(1,3-Benzothiazol-2-yl)amino]-5-methylpyridazin-3-yl}(methyl)amino)-5-[(2S)-3-{4-[3-(dimethylamino)prop-1-yn-1-yl]-2-fluorophenoxy}-2-methylpropyl]-1,3-thiazole-4-carboxylic acid] | 7.52 | > 9.00 | 8.49 | 10.49 | 
Cc1cc(N(CCCCNCCN2CCN(C)CC2)c2nc(C(=O)O)c(CCCOc3ccc(C#CCN(C)C)cc3F)s2)nnc1Nc1nc2ccccc2s1 [Example 168, 2-[[6-(1,3-Benzothiazol-2-ylamino)-5-methyl-pyridazin-3-yl]-[4-[2-(4-methylpiperazin-1-yl)ethylamino]butyl]amino]-5-[3-[4-[3-(dimethylamino)prop-1-ynyl]-2-fluoro-phenoxy]propyl]thiazole-4-carboxylic acid] |  | > 9.00 | 6.75 | 10.92 | 11.59
Cc1cc(N(CCCC(O)CNCCN2CCCCC2)c2nc(C(=O)O)c(CCCOc3ccc(C#CCN(C)C)cc3F)s2)nnc1Nc1nc2ccccc2s1 (centres unmarked) [Example 173, 2-[[6-(1,3-Benzothiazol-2-ylamino)-5-methyl-pyridazin-3-yl]-[4-hydroxy-5-[2-(1-piperidyl)ethylamino]pentyl]amino]-5-[3-[4-[3-(dimethylamino)prop-1-ynyl]-2-fluoro-phenoxy]propyl]thiazole-4-carboxylic acid] | 6.68 |  | 6.90 | 11.10 | 11.48

Further compounds by rising pIC50 (BCLXL [2]), results first:

pIC50 (H146 cells) | pKi (BCLXL [1]) | pIC50 (MOLT-4 cells) | pIC50 (BCLXL [2]) | pKi (Bcl-xL protein) | Structure (SMILES)
4.90 |  | 5.78 | 9.22 | 10.37 | CNCC#Cc1ccc(OC/C(C)=C/c2sc(N(C)c3cc(C)c(Nc4nc5ccccc5s4)nn3)nc2C(=O)O)c(F)c1 [Example 174, 2-({6-[(1,3-Benzothiazol-2-yl)amino]-5-methylpyridazin-3-yl}(methyl)amino)-5-[(1E)-3-{2-fluoro-4-[3-(methylamino)prop-1-yn-1-yl]phenoxy}-2-methylprop-1-en-1-yl]-1,3-thiazole-4-carboxylic acid]
8.33 | > 9.00 | 9.35 | 9.96 | 11.22 | CN(C)CC#Cc1ccc(OCCCc2sc(N(C)c3cc(C4CC4)c(Nc4nc5ccccc5s4)nn3)nc2C(=O)O)c(F)c1 [Example 62, 2-({6-[(1,3-Benzothiazol-2-yl)amino]-5-cyclopropylpyridazin-3-yl}(methyl)amino)-5-(3-{4-[3-(dimethylamino)prop-1-yn-1-yl]-2-fluorophenoxy}propyl)-1,3-thiazole-4-carboxylic acid]
8.80 |  | 8.42 | 10.28 | 10.96 | CNCC#Cc1ccc(OCCCc2sc(N(CCCCO)c3cc(C)c(Nc4nc5ccccc5s4)nn3)nc2C(=O)O)c(F)c1 [Example 114, 2-({6-[(1,3-Benzothiazol-2-yl)amino]-5-methylpyridazin-3-yl}(4-hydroxybutyl)amino)-5-(3-{2-fluoro-4-[3-(methylamino)prop-1-yn-1-yl]phenoxy}propyl)-1,3-thiazole-4-carboxylic acid]
7.72 |  | 8.51 | 10.77 | 11.07 | Cc1cc(N(C)c2nc(C(=O)O)c(CC(C)COc3ccc(C#CCN(C)C)cc3F)s2)nnc1Nc1nc2ccccc2s1 (centres unmarked) [Example 116, 2-({6-[(1,3-Benzothiazol-2-yl)amino]-5-methylpyridazin-3-yl}(methyl)amino)-5-(3-{4-[3-(dimethylamino)prop-1-yn-1-yl]-2-fluorophenoxy}-2-methylpropyl)-1,3-thiazole-4-carboxylic acid]
 | > 9.00 |  | 10.85 | 11.26 | Cc1cc(N(CCCCCO)c2nc(C(=O)O)c(CCCOc3ccc(C#CCN(C)C)cc3F)s2)nnc1Nc1nc2ccccc2s1 [Example 141, 2-[[6-(1,3-Benzothiazol-2-ylamino)-5-methyl-pyridazin-3-yl]-(5-hydroxypentyl)amino]-5-[3-[4-[3-(dimethylamino)prop-1-ynyl]-2-fluoro-phenoxy]propyl]thiazole-4-carboxylic acid]
7.68 |  | 7.74 | 10.89 | 10.55 | CNCC#Cc1ccc(OCCCc2sc(N(CCCCCO)c3cc(C)c(Nc4nc5ccccc5s4)nn3)nc2C(=O)O)c(F)c1 [Example 128]
7.30 |  | 6.31 | 11.00 | 11.18 | CNCC#Cc1ccc(OCCCc2sc(N(CC(O)CO)c3cc(C)c(Nc4nc5ccccc5s4)nn3)nc2C(=O)O)c(F)c1 (centres unmarked) [Example 117, 2-[[6-(1,3-Benzothiazol-2-ylamino)-5-methyl-pyridazin-3-yl]-(2,3-dihydroxypropyl)amino]-5-[3-[2-fluoro-4-[3-(methylamino)prop-1-ynyl]phenoxy]propyl]thiazole-4-carboxylic acid]
7.29 |  | 6.55 | 11.01 | 11.52 | Cc1cc(N(CC(O)CO)c2nc(C(=O)O)c(CCCOc3ccc(C#CCN(C)C)cc3F)s2)nnc1Nc1nc2ccccc2s1 (centres unmarked) [Example 122, 2-[[6-(1,3-Benzothiazol-2-ylamino)-5-methyl-pyridazin-3-yl]-(2,3-dihydroxypropyl)amino]-5-[3-[4-[3-(dimethylamino)prop-1-ynyl]-2-fluoro-phenoxy]propyl]thiazole-4-carboxylic acid]
8.55 | 8.92 | 9.34 | 11.13 | 11.36 | Cc1cc(N(C)c2nc(C(=O)O)c(CCCOc3ccc(C#CCN(C)C)cc3F)s2)nnc1Nc1nc2ccccc2s1 [Example 50, 2-[[6-(1,3-Benzothiazol-2-ylamino)-5-methyl-pyridazin-3-yl]-methyl-amino]-5-[3-[4-[3-(dimethylamino)prop-1-ynyl]-2-fluoro-phenoxy]propyl]thiazole-4-carboxylic acid]
6.70 | > 9.00 | 6.97 | 11.27 |  | Cc1cc(N(CCCCO)c2nc(C(=O)O)c(CCCOc3ccc(C#CC[N+](C)(C)CCCS(=O)(=O)[O-])cc3F)s2)nnc1Nc1nc2ccccc2s1 [Example 130, 3-[3-[4-[3-[2-[[6-(1,3-Benzothiazol-2-ylamino)-5-methyl-pyridazin-3-yl]-(4-hydroxybutyl)amino]-4-carboxy-thiazol-5-yl]propoxy]-3-fluoro-phenyl]prop-2-ynyl-dimethyl-ammonio]propane-1-sulfonate]
